Data reported in patent US20080145858A1, “DETECTION AND IDENTIFICATION OF TOXICANTS BY MEASUREMENT OF GENE […]” (priority 2003, published 2008).
Marks after values point to notes of the source that are not given here.

System: Xenopus laevis neurulation stage embryos (stage 15)
Assay: Xenopus cDNA microarray, differential gene expression after PMA treatment during neurulation (Group II)
Format: in vivo
Conditions: PMA, stage 15
Description: Specifically, the method and screen of the present invention function as follows. EST clones produced from Xenopus laevis unfertilized eggs were used in the present study with ˜1,200 EST clones from a 18,500 EST clone set selected for production of a Xenopus cDNA microarray. The Xenopus microarray was used to measure the effect of chemical treatment on Xenopus embryo gene regulation. The chemical treatment was a phorbol ester, PMA. Xenopus eggs were obtained from females induced for ovulation and fertilized in vitro. Control Xenopus laevis embryos were allowed to develop to stage 8 blastula or stage 15 neurula. Treated embryos were exposed to PMA during cleavage stage or during neurulation with end points of blastula (stage 8) or neurula (stage 15). Specifically, PMA 100 ng/ml was added to the incubation media during cleavage stages for evaluation in stage 8 embryo or PMA was added during neural induction for evaluation in stage 15 embryos. RNA extracted from the embryos was used to generate fluorescent cDNA probes for Xenopus microarray analyses to measure differential gene expression with and without the phorbol ester treatment. Analysis was performed using paired RNA samples to compare PMA-treated and untreated embryos: Group I measured the effects of PMA-treatment during the cleavage stage in stage 8 embryos and Group II measured the effects of PMA-treatment during neurulation in stage 15 embryos. Group III measured the change in gene expression between stage 8 and stage 15 embryos.
cDNA fragments were obtained by PCR replication of Xenopus laevis unfertilized egg cDNA inserts, purified, quantitated and loaded onto glass chips by robotics. In addition to the selected ˜1,200 genes, 64 lambda Q gene, an internal control cDNA (Genomic Solutions, Inc., Ann Arbor, Mich.) was loaded on the chip. The insert DNA from ˜1,200 clones were PCR amplified using forward and reverse primers (GF.200 primers, Research Genetics, Huntsville, Ala.). A second PCR was carried out using 1 μl of the primary PCR (20 μl) for template. Excess dNTPs, polymerase and other PCR artifacts were removed from the secondary PCR reactions using Millipore Multiscreen plates (Millipore Corporation, Bedford, Mass.) using the standard protocol. The purity of the PCR products was assessed by electrophoresis and documented using an Alphalmager 1000 Digital Imaging System (Alpha Innotech Corporation, San Leandro, Calif.). The DNA obtained by PCR was quantitated using PicoGreen (Molecular Probes, Eugene, Oreg.). The DNA was denatured and arrayed onto amino-silane coated microscope slides (CMT-GAPS coated slides, Corning, Corning, N.Y.) using a Flexys robotic workstation (Genomic Solutions Inc.). The ˜1,200 PCR products were arrayed in duplicate on each slide and cross-linked. Each gene chip contained duplicate cDNA samples.
Total RNA was prepared from embryos treated in three separate dishes per treatment group that were pooled. Total RNA was isolated from the frog embryos (1,200 embryos for each probe production) using TRIzol extraction (Gibco BRL, Grand Island, N.Y.) and Qiagen RNeasy kits (Qiagen, Valencia, Calif.). The ethanol precipitated RNA was resuspended in RNase-free water, quantitated with RiboGreen (Molecular Probes, Eugene, Oreg.). Total RNA was further purified using oligoTex mRNA maxi kit (Qiagen Co.) with the bound mRNA eluted with minimum volume of elution buffer and precipitated with ethanol. The recovery rate of mRNA by the ethanol precipitation method was ˜70%. Cy3- or Cy5-tagged probes were produced from an mRNA mixture (20 μl) of Xenopus mRNA (5 μg) and lambda Q gene mRNA (3.5 ng) reverse-transcribed with oligo(dT)18-22 primer and dNTPs and the reverse-transcribed cDNA was cross-linked with Cy3 or Cy5 as described in Clontech Atlas™ Glass Fluorescent Labeling kit manual (www.clontech.com). After hydrolysis of the RNA and purification of the probe (Centricon 50, Millipore, Bedford, Mass.), the cDNA in TE buffer was quantitated by absorbance at 260 nm. […]

With `CCCCCCCCCCCCCC(=O)O[C@@H]1[C@@H](C)[C@@]2(O)[C@@H](C=C(CO)C[C@]3(O)C(=O)C(C)=C[C@@H]23)[C@@H]2C(C)(C)[C@]12OC(C)=O` [PMA, phorbol 12-myristate 12-acetate] the “Cy3/Cy5 by Landmarks (0.25)” value (PBX0135G07 mRNA) was 3.95, the “Cy3/Cy5 by all Data Points (0.469)” value (PBX0135G07 mRNA) was 2.11 and the “Normalized by Landmarks (0.25)” value (PBX0135G07 mRNA) was 0.253. The “Normalized by all Data Points (0.469)” value (PBX0135G07 mRNA) was 0.474, the “Ratio of Medians (Cy5/Cy3) First Spot” value (PBX0135G07 mRNA) was 0.98 and the “Ratio of Medians (Cy5/Cy3) Mean” value (PBX0135G07 mRNA) was 1.01 ± 0.03 ^a. For the same compound, the “Ratio of Medians (Cy5/Cy3) Second Spot” value (PBX0135G07 mRNA) was 1.04, the “Cy3/Cy5 by Landmarks (0.25)” value (PBX0135H08 mRNA) was 4.93 and the “Cy3/Cy5 by all Data Points (0.469)” value (PBX0135H08 mRNA) was 2.63. For the same compound, the “Normalized by Landmarks (0.25)” value (PBX0135H08 mRNA) was 0.203, the “Normalized by all Data Points (0.469)” value (PBX0135H08 mRNA) was 0.380 and the “Ratio of Medians (Cy5/Cy3) First Spot” value (PBX0135H08 mRNA) was 0.78. For the same compound, the “Ratio of Medians (Cy5/Cy3) Mean” value (PBX0135H08 mRNA) was 0.81 ± 0.03 ^a, the “Ratio of Medians (Cy5/Cy3) Second Spot” value (PBX0135H08 mRNA) was 0.84 and the “Normalized by Landmarks (0.25)” value (PBX 0136C09 mRNA) was 1.53. For the same compound, the “Normalized by all Data Points (0.469)” value (PBX 0136C09 mRNA) was 2.87, the “Ratio of Medians (Cy5/Cy3) First Spot” value (PBX 0136C09 mRNA) was 4.19 and the “Ratio of Medians (Cy5/Cy3) Mean” value (PBX 0136C09 mRNA) was 6.12 ± 1.93 ^a. The “Ratio of Medians (Cy5/Cy3) Second Spot” value (PBX 0136C09 mRNA) was 8.05, the “Normalized by Landmarks (0.25)” value (PBX 0136C12 mRNA) was 1.51 and the “Normalized by all Data Points (0.469)” value (PBX 0136C12 mRNA) was 2.82. For the same compound, the “Ratio of Medians (Cy5/Cy3) First Spot” value (PBX 0136C12 mRNA) was 5.29, the “Ratio of Medians (Cy5/Cy3) Mean” value (PBX 0136C12 mRNA) was 6.02 ± 0.73 ^a and the “Ratio of Medians (Cy5/Cy3) Second Spot” value (PBX 0136C12 mRNA) was 6.75. For the same compound, the “Normalized by Landmarks (0.25)” value (PBX 0136F03 mRNA) was 1.54, the “Normalized by all Data Points (0.469)” value (PBX 0136F03 mRNA) was 2.90 and the “Ratio of Medians (Cy5/Cy3) First Spot” value (PBX 0136F03 mRNA) was 3.67. The “Ratio of Medians (Cy5/Cy3) Mean” value (PBX 0136F03 mRNA) was 6.18 ± 2.5 ^a, the “Ratio of Medians (Cy5/Cy3) Second Spot” value (PBX 0136F03 mRNA) was 8.68 and the “Normalized by Landmarks (0.25)” value (PBX 0136G06 mRNA) was 1.36. The “Normalized by all Data Points (0.469)” value (PBX 0136G06 mRNA) was 2.54, the “Ratio of Medians (Cy5/Cy3) First Spot” value (PBX 0136G06 mRNA) was 4.95 and the “Ratio of Medians (Cy5/Cy3) Mean” value (PBX 0136G06 mRNA) was 5.42 ± 0.47 ^a. The “Ratio of Medians (Cy5/Cy3) Second Spot” value (PBX 0136G06 mRNA) was 5.89, the “Normalized by Landmarks (0.25)” value (PBX 0136G08 mRNA) was 1.36 and the “Normalized by all Data Points (0.469)” value (PBX 0136G08 mRNA) was 2.54. The “Ratio of Medians (Cy5/Cy3) First Spot” value (PBX 0136G08 mRNA) was 4.48, the “Ratio of Medians (Cy5/Cy3) Mean” value (PBX 0136G08 mRNA) was 5.43 ± 0.94 ^a and the “Ratio of Medians (Cy5/Cy3) Second Spot” value (PBX 0136G08 mRNA) was 6.37. For the same compound, the “Cy3/Cy5 by Landmarks (0.25)” value (PBX0137F04 mRNA) was 3.70, the “Cy3/Cy5 by all Data Points (0.469)” value (PBX0137F04 mRNA) was 1.97 and the “Normalized by Landmarks (0.25)” value (PBX0137F04 mRNA) was 0.270. The “Normalized by all Data Points (0.469)” value (PBX0137F04 mRNA) was 0.507, the “Ratio of Medians (Cy5/Cy3) First Spot” value (PBX0137F04 mRNA) was 0.95 and the “Ratio of Medians (Cy5/Cy3) Mean” value (PBX0137F04 mRNA) was 1.08 ± 0.13 ^a. The “Ratio of Medians (Cy5/Cy3) Second Spot” value (PBX0137F04 mRNA) was 1.21, the “Normalized by Landmarks (0.25)” value (PBX 0138E11 mRNA) was 1.57 and the “Normalized by all Data Points (0.469)” value (PBX 0138E11 mRNA) was 2.95. The “Ratio of Medians (Cy5/Cy3) First Spot” value (PBX 0138E11 mRNA) was 5.02, the “Ratio of Medians (Cy5/Cy3) Mean” value (PBX 0138E11 mRNA) was 6.29 ± 1.27 ^a and the “Ratio of Medians (Cy5/Cy3) Second Spot” value (PBX 0138E11 mRNA) was 7.56. The “Normalized by Landmarks (0.25)” value (PBX 0138H03 mRNA) was 1.44, the “Normalized by all Data Points (0.469)” value (PBX 0138H03 mRNA) was 2.70 and the “Ratio of Medians (Cy5/Cy3) First Spot” value (PBX 0138H03 mRNA) was 6.36. For the same compound, the “Ratio of Medians (Cy5/Cy3) Mean” value (PBX 0138H03 mRNA) was 5.75 ± 0.61 ^a, the “Ratio of Medians (Cy5/Cy3) Second Spot” value (PBX 0138H03 mRNA) was 5.14 and the “Cy3/Cy5 by Landmarks (0.25)” value (PBX0139G06 mRNA) was 3.77. The “Cy3/Cy5 by all Data Points (0.469)” value (PBX0139G06 mRNA) was 2.01, the “Normalized by Landmarks (0.25)” value (PBX0139G06 mRNA) was 0.265 and the “Normalized by all Data Points (0.469)” value (PBX0139G06 mRNA) was 0.497. The “Ratio of Medians (Cy5/Cy3) First Spot” value (PBX0139G06 mRNA) was 1.06.
